From US4434170A, “Nor-tropane derivatives, and their application in therapeutics” (Delalande S.A., priority 1980, dated 1984)

How the values were obtained:
[1] = system: apomorphinic straightenings; assay: Antagonism to apomorphinic straightenings (mice); assay type: in vivo; conditions: Mus musculus, ip, read-out: Antagonism to apomorphinic straightenings (mice) ED 50
Excerpt: (§1) I. C. Niemegeers and A. H. M. Jageneau in Arzneim-Forsch. (1960), 10, 1003.

Acute toxicity (mice) = conditions: mouse, in vivo, ip, read-out: Toxicity (mice) LD 50
Description: The acute toxicity of the compounds of the invention was also tested intraperitoneally on mice.

[2] = system: vomiting induced by apomorphine; assay: Antiemetic activity (dogs), vomiting induced by apomorphine; assay type: in vivo; conditions: one hour before apomorphine 0.1 mg/kg subcutaneous
gastric evacuation = assay: Gastric evacuation test (rat); assay type: in vivo
Description: The compounds of formula (I) were administered orally simultaneously with 20 steel balls to wakeful rats starved for 20 hours.

Stair case test (rat) = assay type: in vivo; conditions: po, sedative effect
[3] = system: apomorphine induced stereotypies; assay: Antagonism to the apomorphine induced stereotypies (rat); assay type: in vivo; conditions: po
Excerpt: as §1

SMILES	ED50 [1] [mg/kg]	LD50 (Acute toxicity (mice)) [mg/kg]	also measured
COc1cc(N)c(Br)cc1C(=O)N[C@@H]1C[C@H]2CC[C@@H](C1)N2Cc1ccccc1F [compound 131]	0.013	250	–
COc1cc(Br)cc(C(=O)N[C@@H]2C[C@H]3CC[C@@H](C2)N3Cc2ccccc2)c1OC [compound 147]	0.042	165	Antiemetic activity: % inhibition of vomiting induced by apomorphine ([2]; 0.1 mg/kg/po): 100%; Gastric evacuation: % animals whose stomach contains no ball after 90 minutes (gastric evacuation; 0.3 mg/kg/po): 25%; Gastric evacuation: % animals whose stomach contains no ball after 90 minutes (gastric evacuation; 0.6 mg/kg/po): 63%; Gastric evacuation: % animals whose stomach contains no ball after 90 minutes (gastric evacuation; 10 mg/kg/po): 90%
COc1cc(OC)c(OC)c(C(=O)N[C@@H]2C[C@H]3CC[C@@H](C2)N3Cc2ccccc2)c1 [compound 135]	0.01	70	–
CCOc1c(OC)cccc1C(=O)N[C@@H]1C[C@H]2CC[C@@H](C1)N2Cc1ccc(Cl)c(Cl)c1 [compound 145]	0.3	> 400	–
COc1cc(SC)cc(C(=O)N[C@@H]2C[C@H]3CC[C@@H](C2)N3Cc2ccccc2)c1OC [compound 168]	0.28	120	–
COc1cc(C(C)=O)cc(C(=O)N[C@@H]2C[C@H]3CC[C@@H](C2)N3Cc2ccccc2)c1OC [compound 171]	0.029	115	–
CCOc1cccc(C(=O)N[C@@H]2C[C@H]3CC[C@@H](C2)N3Cc2ccccc2)c1OC [compound 140]	0.019	70	–
CCOc1c(OC)cccc1C(=O)N[C@@H]1C[C@H]2CCC[C@@H](C1)N2Cc1ccccc1 [compound 143]	0.025	110	ED50 (Stair case test (rat)): 1.6 mg/kg; ED50 [3]: 0.26 mg/kg
CCOc1c(OC)cc(OC)cc1C(=O)N[C@@H]1C[C@H]2CC[C@@H](C1)N2Cc1ccccc1 [compound 141]	0.035	115	–
COc1cc(N)c(Cl)cc1C(=O)N[C@@H]1C[C@H]2CC[C@@H](C1)N2Cc1cccc(C)c1 [compound 169]	0.034	70	ED50 (Stair case test (rat)): 3.5 mg/kg; ED50 [3]: 0.46 mg/kg
COc1cccc(C(=O)N[C@@H]2C[C@H]3CC[C@@H](C2)N3Cc2ccc(Cl)cc2)c1OC [compound 112]	0.029	220	–
CCSc1cc(OC)c(OC)c(C(=O)N[C@@H]2C[C@H]3CC[C@@H](C2)N3Cc2ccccc2)c1 [compound 174]	0.034	95	–
COc1cccc(C(=O)N[C@@H]2C[C@H]3CC[C@@H](C2)N3Cc2ccc(C)cc2)c1OC [compound 120]	0.032	100	–
COc1cc([N+](=O)[O-])cc(C(=O)N[C@@H]2C[C@H]3CC[C@@H](C2)N3Cc2ccccc2)c1OC [compound 142]	0.012	87.5	–
COc1cccc(C(=O)N[C@@H]2C[C@H]3CCC[C@@H](C2)N3Cc2ccccc2)c1OC [compound 148]	0.008	100	–
COc1cccc(C(=O)N[C@@H]2C[C@H]3CC[C@@H](C2)N3Cc2ccc(C#N)cc2)c1OC [compound 180]	0.01	275	–
COc1cccc(C(=O)N[C@@H]2C[C@H]3CC[C@@H](C2)N3Cc2ccc(F)cc2)c1OC [compound 155]	0.005	140	–
COc1cccc(C(=O)N[C@@H]2C[C@H]3CC[C@@H](C2)N3Cc2cccc(Cl)c2)c1OC [compound 173]	0.013	160	–
CCOc1c(OC)cccc1C(=O)N[C@@H]1C[C@H]2CC[C@@H](C1)N2Cc1ccccc1 [compound 139]	0.01	76	ED50 (Stair case test (rat)): 0.3 mg/kg; ED50 [3]: 0.06 mg/kg
COc1cc(N)c(Cl)cc1C(=O)N[C@@H]1C[C@H]2CC[C@@H](C1)N2Cc1cccc(F)c1 [compound 127]	0.007	200	–
COc1cc(N)c(Br)cc1C(=O)N[C@@H]1C[C@H]2CC[C@@H](C1)N2Cc1ccoc1 [compound 132]	0.12	200	Antiemetic activity: % inhibition of vomiting induced by apomorphine ([2]; 0.01 mg/kg/po): 100%; Gastric evacuation: % animals whose stomach contains no ball after 90 minutes (gastric evacuation; 0.6 mg/kg/po): 25%; Gastric evacuation: % animals whose stomach contains no ball after 90 minutes (gastric evacuation; 1.3 mg/kg/po): 50%; Gastric evacuation: % animals whose stomach contains no ball after 90 minutes (gastric evacuation; 5 mg/kg/po): 75%; Gastric evacuation: % animals whose stomach contains no ball after 90 minutes (gastric evacuation; 10 mg/kg/po): 100%
COc1cc(N)c(Br)cc1C(=O)N[C@@H]1C[C@H]2CC[C@@H](C1)N2Cc1ccccc1Cl [compound 121]	0.024	250	–
COc1cccc(C(=O)N[C@@H]2C[C@H]3CC[C@@H](C2)N3Cc2cccc(F)c2)c1OC [compound 113]	0.016	140	–
COc1cccc(C(=O)N[C@@H]2C[C@H]3CC[C@@H](C2)N3Cc2ccc(Br)cc2)c1OC [compound 129]	0.008	180	–
COc1cccc(C(=O)N[C@@H]2C[C@H]3CC[C@@H](C2)N3Cc2cccc(C)c2)c1OC [compound 118]	0.016	90	–
CCOc1cc(N)c(Br)cc1C(=O)N[C@@H]1C[C@H]2CC[C@@H](C1)N2Cc1ccc(Cl)cc1 [compound 123]	0.041	> 400	ED50 (Stair case test (rat)): 1.7 mg/kg; ED50 [3]: 0.2 mg/kg
CCOc1cc(N)c(Br)cc1C(=O)N[C@@H]1C[C@H]2CC[C@@H](C1)N2Cc1cccc(Cl)c1 [compound 126]	0.054	> 400	–
CCOc1cccc(C(=O)N[C@@H]2C[C@H]3CC[C@@H](C2)N3Cc2ccccc2)c1OCC [compound 115]	0.038	53	ED50 (Stair case test (rat)): 1.3 mg/kg; ED50 [3]: 0.22 mg/kg
COc1c(N)cc(Br)cc1C(=O)N[C@@H]1C[C@H]2CC[C@@H](C1)N2Cc1ccccc1 [compound 106]	0.053	160	ED50 (Stair case test (rat)): 8 mg/kg; ED50 [3]: 1.6 mg/kg
